How the values were obtained:
Assay type in all cases: physicochemical
[1] = Dynamic vapor sorption (DVS)
Description: About 20 mg of the crystalline form was transferred into a dynamic vapor sorption instrument from Surface Measurement Systems Ltd. (SMS). The weight change was recorded relative to the relative humidity (Target RH %) at 25° C.
Crystalline Forms A and J were analyzed by dynamic vapor sorption (DVS) according to the conditions described in the General Procedures.

[2] = Hygroscopicity of forms from the polymorph preparations (method not given)
[3] = VT-PXRD analysis of form change
[4] = Thermogravimetric analysis (TGA); conditions: heating 10° C./min, nitrogen
Description: TA INSTRUMENT® models Q5000, Q500, or 2950 were used to generate TGA data. The measurement was made using standard TA Instruments Platinum pans. The measurement was made at a heating rate of 10° C./min, in a nitrogen environment from room temperature to 300° C., with a sample size about 10-30 mg.
Crystalline Forms A and J were analyzed by thermogravimetric analysis (TGA) according to the conditions described in the General Procedures. Exemplary TGA thermograms for Forms A and J are shown in FIGS. 4 and 13D, respectively.

C[C@@H]1CCC[C@H](n2cnc(-c3cc(Cl)ccc3-n3cc(Cl)nn3)cc2=O)c2cc(ccn2)-c2c(cnn2C(F)F)NC1=O [Form A, (9R,13S)-13-{4-[5-chloro-2-(4-chloro-1H-1,2,3-triazol-1-yl)phenyl]-6-oxo-1,6-dihydropyrimidin-1-yl}-3-(difluoromethyl)-9-methyl-3,4,7,15-tetraazatricyclo[12.3.1.0^2,6]octadeca-1(18),2(6),4,14,16-pentaen-8-one]
change of crystalline form after being subjected to DVS conditions ([1]; PXRD and IR post-DVS analysis): did not change | hygroscopicity indicated by DVS analysis ([1]; weight change vs relative humidity at 25° C.): not hygroscopic

C[C@@H]1CCC[C@H](n2cnc(-c3cc(Cl)ccc3-n3cc(Cl)nn3)cc2=O)c2cc(ccn2)-c2c(cnn2C(F)F)NC1=O [Form C, (9R,13S)-13-{4-[5-chloro-2-(4-chloro-1H-1,2,3-triazol-1-yl)phenyl]-6-oxo-1,6-dihydropyrimidin-1-yl}-3-(difluoromethyl)-9-methyl-3,4,7,15-tetraazatricyclo[12.3.1.0^2,6]octadeca-1(18),2(6),4,14,16-pentaen-8-one]
hygroscopicity [2]: non-hygroscopic | change in form on VT-PXRD analysis [3]: no change in form

C[C@@H]1CCC[C@H](n2cnc(-c3cc(Cl)ccc3-n3cc(Cl)nn3)cc2=O)c2cc(ccn2)-c2c(cnn2C(F)F)NC1=O [Form J, (9R,13S)-13-{4-[5-chloro-2-(4-chloro-1H-1,2,3-triazol-1-yl)phenyl]-6-oxo-1,6-dihydropyrimidin-1-yl}-3-(difluoromethyl)-9-methyl-3,4,7,15-tetraazatricyclo[12.3.1.0^2,6]octadeca-1(18),2(6),4,14,16-pentaen-8-one]
loss of weight in TGA ([4]; below about 250° C.): no significant loss of weight | onset of decomposition in TGA [4]: about 281 °C
